Test: xn = mol fraction of the nth substance listed
Settings: Liquid, Vibrating tube method

CCCCCCCCC [nonane] + CCCO
Settings | mass density [kg/m3]
333.15 K, 6020 kPa, x2 = 0.1231 | 692.22
333.15 K, 6020 kPa, x2 = 0.3229 | 700.03
333.15 K, 7000 kPa, x2 = 0.2315 | 697.33
333.15 K, 7010 kPa, x2 = 0.1231 | 693.22
333.15 K, 7010 kPa, x2 = 0.3229 | 701.03
333.15 K, 7010 kPa, x2 = 0.4272 | 706.53
333.15 K, 7010 kPa, x2 = 0.7021 | 728.53
333.15 K, 7010 kPa, x2 = 0.8941 | 754.12
333.15 K, 8000 kPa, x2 = 0.3229 | 702.03
333.15 K, 8010 kPa, x2 = 0.1231 | 694.22
333.15 K, 8010 kPa, x2 = 0.7021 | 729.53
333.15 K, 8010 kPa, x2 = 0.8941 | 755.09
333.15 K, 8020 kPa, x2 = 0.2315 | 698.33
333.15 K, 8020 kPa, x2 = 0.4272 | 707.53
333.15 K, 9010 kPa, x2 = 0.2315 | 699.32
333.15 K, 9010 kPa, x2 = 0.3229 | 703.05
333.15 K, 9010 kPa, x2 = 0.4272 | 708.53
333.15 K, 9010 kPa, x2 = 0.7021 | 730.52
333.15 K, 9010 kPa, x2 = 0.8941 | 756.05
333.15 K, 9020 kPa, x2 = 0.1231 | 695.19
333.15 K, 10010 kPa, x2 = 0.1231 | 696.17
333.15 K, 10010 kPa, x2 = 0.2315 | 700.3
333.15 K, 10010 kPa, x2 = 0.3229 | 704.04
333.15 K, 10010 kPa, x2 = 0.4272 | 709.54
333.15 K, 10020 kPa, x2 = 0.7021 | 731.49
333.15 K, 10020 kPa, x2 = 0.8941 | 757
333.15 K, 11010 kPa, x2 = 0.1231 | 697.14
333.15 K, 11010 kPa, x2 = 0.2315 | 701.27
333.15 K, 11010 kPa, x2 = 0.3229 | 705.01
333.15 K, 11010 kPa, x2 = 0.4272 | 710.52
333.15 K, 11010 kPa, x2 = 0.7021 | 732.46
333.15 K, 11010 kPa, x2 = 0.8941 | 757.95
333.15 K, 12000 kPa, x2 = 0.1231 | 698.08
333.15 K, 12000 kPa, x2 = 0.2315 | 702.25
333.15 K, 12000 kPa, x2 = 0.3229 | 705.98
333.15 K, 12010 kPa, x2 = 0.4272 | 711.48
333.15 K, 12010 kPa, x2 = 0.8941 | 758.88
333.15 K, 12020 kPa, x2 = 0.7021 | 733.42
333.15 K, 13000 kPa, x2 = 0.3229 | 706.94
333.15 K, 13000 kPa, x2 = 0.8941 | 759.79
333.15 K, 13010 kPa, x2 = 0.1231 | 699.03
333.15 K, 13010 kPa, x2 = 0.4272 | 712.44
333.15 K, 13010 kPa, x2 = 0.7021 | 734.37
333.15 K, 13020 kPa, x2 = 0.2315 | 703.18
333.15 K, 14000 kPa, x2 = 0.3229 | 707.87
333.15 K, 14010 kPa, x2 = 0.1231 | 699.96
333.15 K, 14010 kPa, x2 = 0.2315 | 704.11
333.15 K, 14010 kPa, x2 = 0.4272 | 713.39
333.15 K, 14010 kPa, x2 = 0.7021 | 735.32
333.15 K, 14010 kPa, x2 = 0.8941 | 760.71
333.15 K, 15000 kPa, x2 = 0.2315 | 705.02
333.15 K, 15010 kPa, x2 = 0.1231 | 700.86
333.15 K, 15010 kPa, x2 = 0.3229 | 708.79
333.15 K, 15010 kPa, x2 = 0.4272 | 714.3
333.15 K, 15010 kPa, x2 = 0.7021 | 736.23
333.15 K, 15010 kPa, x2 = 0.8941 | 761.6
333.15 K, 16000 kPa, x2 = 0.4272 | 715.23
333.15 K, 16000 kPa, x2 = 0.8941 | 762.49
333.15 K, 16010 kPa, x2 = 0.1231 | 701.75
333.15 K, 16010 kPa, x2 = 0.2315 | 705.94
333.15 K, 16010 kPa, x2 = 0.3229 | 709.71
333.15 K, 16020 kPa, x2 = 0.7021 | 737.15
333.15 K, 17000 kPa, x2 = 0.3229 | 710.61
333.15 K, 17010 kPa, x2 = 0.7021 | 738.03
333.15 K, 17010 kPa, x2 = 0.8941 | 763.38
333.15 K, 17020 kPa, x2 = 0.1231 | 702.63
333.15 K, 17020 kPa, x2 = 0.2315 | 706.85
333.15 K, 17020 kPa, x2 = 0.4272 | 716.11
333.15 K, 18000 kPa, x2 = 0.3229 | 711.48
333.15 K, 18000 kPa, x2 = 0.4272 | 717
333.15 K, 18000 kPa, x2 = 0.8941 | 764.23
333.15 K, 18010 kPa, x2 = 0.1231 | 703.52
333.15 K, 18010 kPa, x2 = 0.2315 | 707.71
333.15 K, 18010 kPa, x2 = 0.7021 | 738.91
333.15 K, 19000 kPa, x2 = 0.1231 | 704.35
333.15 K, 19000 kPa, x2 = 0.2315 | 708.54
333.15 K, 19000 kPa, x2 = 0.8941 | 765.08
333.15 K, 19010 kPa, x2 = 0.3229 | 712.34
333.15 K, 19010 kPa, x2 = 0.4272 | 717.85
333.15 K, 19010 kPa, x2 = 0.7021 | 739.77
333.15 K, 20000 kPa, x2 = 0.2315 | 709.37
333.15 K, 20000 kPa, x2 = 0.8941 | 765.89
333.15 K, 20010 kPa, x2 = 0.7021 | 740.63
333.15 K, 20020 kPa, x2 = 0.1231 | 705.18
333.15 K, 20020 kPa, x2 = 0.3229 | 713.17
333.15 K, 20020 kPa, x2 = 0.4272 | 718.7
343.15 K, 100 kPa, x2 = 0.1231 | 677.91
343.15 K, 100 kPa, x2 = 0.2315 | 680.7
343.15 K, 100 kPa, x2 = 0.3229 | 683.88
343.15 K, 100 kPa, x2 = 0.4272 | 688.89
343.15 K, 100 kPa, x2 = 0.7021 | 710.15
343.15 K, 100 kPa, x2 = 0.8941 | 735.96
343.15 K, 1000 kPa, x2 = 0.2315 | 681.31

— the NIST ThermoML archive (doi:10.1021/acs.jced.8b00554)
